Assay results from patent US9315522B2, “Antibacterial compounds” (JANSSEN SCIENCES IRELAND UC, priority 2012, dated 2016).

Molecular target: T1, S. aureus ATCC 29213 FabI (Staphylococcus aureus, UniProt Q6GI75)
T1 sequence (Q6GI75 1-256): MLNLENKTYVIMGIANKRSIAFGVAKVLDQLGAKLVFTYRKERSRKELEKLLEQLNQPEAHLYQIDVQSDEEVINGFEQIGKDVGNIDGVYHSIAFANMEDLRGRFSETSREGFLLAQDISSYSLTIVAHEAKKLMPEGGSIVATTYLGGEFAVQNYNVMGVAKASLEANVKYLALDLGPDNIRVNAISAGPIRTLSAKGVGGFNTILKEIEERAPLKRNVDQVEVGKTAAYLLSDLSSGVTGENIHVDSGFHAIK
Test: Staphylococcus aureus FabI enzyme inhibition assay
Type: biochemical
Details: read-out: FabI (300.235) IC50 (converted)
How it was run: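 S. aureus ATCC 29213 FabI (50 μg/ml) with 250 μM crotonoyl-CoA and 625 μM NADH in 100 mM NaADA pH 6.5, inhibitor 50–0.39 μM, 30 min at room temperature. Stopped by Tris pH 9.0 shift; NADH at 340 nm versus no-compound and no-enzyme controls; IC50 in μg/ml.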

SMILES	IC50 [nM]
O=C1CNCc2cc(/C=C/C(=O)N3CC4C=C(c5ccccc5)CC4C3)cnc2N1 (stereo not shown) [compound 47]	874
CN1CC(=O)Nc2ncc(/C=C/C(=O)N3C[C@@H]4CN(c5ccccc5)C[C@@H]4C3)cc2C1 [compound 60]	2180
O=C1Nc2ncc(/C=C/C(=O)N3CC4C=C(c5ccccc5)CC4C3)cc2CN2CCOCC12 (stereo not shown) [compound 69]	1030

Tested on: Staphylococcus aureus ATCC 29213
Test: Antibacterial susceptibility testing, IC90 determination (STA)
Type: cell-based
Details: Staphylococcus aureus ATCC 29213, broth microdilution, resazurin
How it was run: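 S. aureus ATCC 29213 tested by broth microdilution in Mueller-Hinton broth, 5×10^5 CFU/ml, two-fold compound dilutions typically 63 to 0.49 μM, 1.25% DMSO, 16-20 h at 35° C. Growth read fluorometrically with resazurin (ex 540/em 590 nm); IC90 in μg/ml is 90% growth-inhibitory concentration.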

SMILES	STA (361.159) IC90 [µg/mL]
O=C1CNCc2cc(/C=C/C(=O)N3CC4C=C(c5ccccc5)CC4C3)cnc2N1 (stereo not shown) [compound 47]	0.24
CN1CC(=O)Nc2ncc(/C=C/C(=O)N3C[C@@H]4CN(c5ccccc5)C[C@@H]4C3)cc2C1 [compound 60]	5.50
O=C1Nc2ncc(/C=C/C(=O)N3CC4C=C(c5ccccc5)CC4C3)cc2CN2CCOCC12 (stereo not shown) [compound 69]	0.15

Tested on: S. aureus
Test: Antibacterial susceptibility testing, IC90 determination with 10% human serum (STA + 10% HS)
Type: cell-based, Staphylococcus aureus
Details: human serum at final concentration of 10%
How it was run: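 Broth microdilution in Mueller-Hinton broth with 10% human serum, 5×10^5 CFU/ml S. aureus, two-fold compound dilutions (typically 63 to 0.49 μM), 1.25% DMSO, 16-20 h at 35° C. Growth read fluorometrically with resazurin (ex 540/em 590 nm); IC90 in μg/ml is the 90% growth-inhibitory concentration.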

SMILES	STA + 10% HS (361.169) IC90 [µg/mL]
O=C1CNCc2cc(/C=C/C(=O)N3CC4C=C(c5ccccc5)CC4C3)cnc2N1 (stereo not shown) [compound 47]	0.26
CN1CC(=O)Nc2ncc(/C=C/C(=O)N3C[C@@H]4CN(c5ccccc5)C[C@@H]4C3)cc2C1 [compound 60]	3.85
O=C1Nc2ncc(/C=C/C(=O)N3CC4C=C(c5ccccc5)CC4C3)cc2CN2CCOCC12 (stereo not shown) [compound 69]	0.22

Tested on: Human HelaM cells
Test: Cytotoxicity MTT assay (HELAM)
Type: cell-based
Details: 72 hours
How it was run: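 HelaM cells exposed 72 h at 37° C to serial dilutions, typically 25 to 0.8 μM, in 0.5% DMSO. MTT formazan dissolved in 2-propanol, absorbance at 540 nm minus 690 nm; CC50 is concentration halving viability.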

SMILES	HELAM (222.125) CC50 [µg/mL]
O=C1CNCc2cc(/C=C/C(=O)N3CC4C=C(c5ccccc5)CC4C3)cnc2N1 (stereo not shown) [compound 47]	>10.06
CN1CC(=O)Nc2ncc(/C=C/C(=O)N3C[C@@H]4CN(c5ccccc5)C[C@@H]4C3)cc2C1 [compound 60]	>10.49
O=C1Nc2ncc(/C=C/C(=O)N3CC4C=C(c5ccccc5)CC4C3)cc2CN2CCOCC12 (stereo not shown) [compound 69]	8.31

Tested on: not given
Test: not given
Details: not given

SMILES	melting point [°C]
CN1CC(=O)Nc2ncc(/C=C/C(=O)N3C[C@@H]4CN(c5ccccc5)C[C@@H]4C3)cc2C1 [compound 60]	178
